Laboratory results reported in patent US7435407B2, “Inhibition of olfactory neurosensory function to treat eating disorders and obesity” (Compellis Pharmaceuticals, priority 2002, dated 2008).

Columns and labels:
[1] = Rota-Rod test after intranasal administration; assay type: in vivo, rat; details: intranasal 1 mg/kg; 6 rpm; sessions 0-60 minutes after administration
Procedure: Two groups of rats (12 rats each) were tested. Each rat went through 8 sessions on the rota-rod: 3 sessions before drug administration (pretest, time −45, −30, and −15 minutes); 1 session immediately after the drug was administered (time 0); and 4 sessions after drug administration (time 15, 30, 45, and 60 minutes).
A speed of 6 rpm was used, and diltiazem was administered, as described above, intra-nasally at 1 mg/kg.

olfactory epithelium = assay: Electro-olfactory (EOG) recording of olfactory epithelium response to odorant Citralva; assay type: in vivo, mice; details: 10 μl/nostril intranasal, recording 10 min later
Procedure: A detailed description of the method employed is provided, e.g., by Wong et al. (Neuron 2000: 27: 487-97), and Scott (J Neurosci 2000; 15:4721-31). Briefly, six week old mice were used and each mouse was given 10 μl/nostril of Diltiazem at 10 μM, 100 μM, or saline. It was returned to home cage and euthanized 10 min later for electro-olfactory (EOG) recording. The odorant was Ciltralva at 5 μM. Also included was a “no treatment” control.

[2] = Food intake in food-deprived rats after intranasal administration; assay type: in vivo, rat
Procedure: Male Sprague-Dawley rats, 150-175 g at the start of the experiments (Charles River Laboratories, Wilmington, Mass.) were housed individually in suspended wire mesh cages; maintained on a reversed-lighting schedule (lights-on at 7 p.m., lights-off at 7 a.m.); and acclimated to our climate controlled animal facility and to the test diets for 7 days prior to experimentation. As the experiments in food-deprived rats were performed during the dark cycle, a dull red light (25 watt) was used to help with placement and weighing of the food jars.
Rats had ad libitum access to tap water and food (Rodent Laboratory Chow No. 5001-pellet form, Purina) on non-testing days. A mush diet, used for experiments on food-deprived animals, and composed of equal parts by weight of ground rodent chow (Purina, # 5001-meal form) and a 4% nutrient agar solution (Teklad Diets) was presented to the animals in glass jars. […]
One hour after administration, pre-weighed food jars were introduced into the cage and a sheet of clean white paper placed under each cage to catch any spillage. The amount of food consumed after 1, 2 and 4 hours was determined to the nearest 0.01 g. […]
One hour later pre-weighed food jars were introduced into the cage and a sheet of clean white paper placed under each cage to catch any spillage. The amount of food consumed after 1, 2 and 4 hours was determined to the nearest 0.01 g.

For `COc1ccc([C@@H]2Sc3ccccc3N(CCN(C)C)C(=O)[C@@H]2OC(C)=O)cc1` [diltiazem, Diltiazem], the “activity (balance and agility) in Rota-Rod test, drug versus vehicle group” value [1] was “no indications of a difference in activity”, the “effect on olfactory nerve activity (EOG response to Citralva 5 μM)” value (olfactory epithelium; 10 μM) was “little effect” and the “effect on olfactory nerve response (EOG response to Citralva 5 μM)” value (olfactory epithelium; 100 μM) was “blocked”. The “optimal dose (concentration of solution) for reduction of food intake” value ([2]; dosing study, intranasal 20 μL/nostril, 0.02, 0.2 and 2 mg/kg, strong trend (FIG. 2)) was 0.2-20 % w/v and the “amount of food consumed” value ([2]; intranasal 20 μL/nostril, 0.02-2 mg/kg, food given 1 hour after administration, consumed after 1, 2 and 4 hours, versus placebo (FIG. 1)) was “consumed significantly less food”.
